From patent US7179808B2 (Janssen Pharmaceutica N.V., priority 2002, dated 2007)
Counter-ions that a name gives are not always drawn.

Columns and labels:
NADPH-oxidase = biological target: T1, NADPH-oxidase (Homo sapiens, UniProt P04839); test: Oxidase Inhibition Assay (PMA-stimulated superoxide-mediated reduction of Cytochrome c, absorbance at 550 nm); format: cell-based; conditions: for IC50: human neutrophils, 0.5 μM PMA, Cytochrome c reduction at 550 nm
T1 construct: endogenous in cells; host or cells: human neutrophils isolated from the buffy coat of one unit of blood
T1 sequence (P04839 1-570): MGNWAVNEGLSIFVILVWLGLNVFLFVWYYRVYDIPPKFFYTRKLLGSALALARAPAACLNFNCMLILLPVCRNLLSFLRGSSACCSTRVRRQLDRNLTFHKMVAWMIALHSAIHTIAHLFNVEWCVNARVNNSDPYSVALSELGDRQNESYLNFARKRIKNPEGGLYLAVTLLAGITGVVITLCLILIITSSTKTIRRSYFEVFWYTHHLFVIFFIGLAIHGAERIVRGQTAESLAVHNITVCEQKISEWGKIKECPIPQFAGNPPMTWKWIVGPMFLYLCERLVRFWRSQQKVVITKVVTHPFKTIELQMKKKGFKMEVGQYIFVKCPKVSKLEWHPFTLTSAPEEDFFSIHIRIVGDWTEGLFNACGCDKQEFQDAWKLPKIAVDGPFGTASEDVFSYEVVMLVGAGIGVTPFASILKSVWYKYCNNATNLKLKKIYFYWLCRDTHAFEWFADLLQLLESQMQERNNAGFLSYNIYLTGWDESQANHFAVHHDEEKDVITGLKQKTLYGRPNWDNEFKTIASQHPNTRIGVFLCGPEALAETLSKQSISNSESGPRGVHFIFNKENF
T1 sequence (P13498 1-195 partner): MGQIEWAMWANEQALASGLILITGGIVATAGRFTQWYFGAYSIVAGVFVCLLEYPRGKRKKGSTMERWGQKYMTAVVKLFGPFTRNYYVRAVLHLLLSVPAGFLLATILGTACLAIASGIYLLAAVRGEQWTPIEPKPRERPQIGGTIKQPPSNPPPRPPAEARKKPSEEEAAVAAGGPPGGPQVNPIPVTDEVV
Protocol: Whole cells (human neutrophils) are incubated with a pro-inflammatory agonist phorbol myristate acetate (PMA) in the presence or absence of test compound to measure the superoxide-mediated reduction of Cytochrome c at 550 nm. Inhibition of the oxidase is determined by a decreased absorbance at 550 nm, in response to test compound, relative to the absorbance seen with a vehicle control.
The buffy coat from one unit of blood is split evenly into four 50 mL tubes. To each tube 30 mL 3% Dextran (in 0.9% NaCl) is added and the tubes are inverted to mix. Tubes are allowed to sit undisturbed for 25 minutes. The resulting supernatant is recovered into four fresh tubes and centrifuged for 10 minutes at 600×g, 4° C. The supernatant is discarded and pellets are resuspended in 35 mL 0.9% saline. 10 mL Ficoll-Paque PLUS (Pharmacia Biotech AB) is layered beneath the cell suspension and centrifuged at 600×g for 40 minutes at room temperature. The supernatant is again discarded and tubes are tapped to loosen the resulting pellets. 20 mL 0.2% ice cold saline is added for 30 seconds followed by 20 mL 1.6% ice cold saline to lyse the remaining erythrocytes in the pellets. The pellets are centrifuged for 10 minutes at 600×g, 4° C., and the supernatant is discarded. The neutrophil pellets are resuspended in HBSS-glucose buffer (1 mg/mL), adding 2.5 mL to each tube for a total volume of 10 mL. The cell suspension is then counted on a hemocytometer.
The cell suspension is diluted to a concentration of 5×10^6/mL in HBSS-glucose and treated with 1 μg/mL Cytochalasin B (5 mg/mL DMSO) for 10 minutes at 37° C. in a shaking water bath. Cells are diluted to 6×10^5 cells/mL in 92 μM Cytochrome c for a final concentration of 5×10^4 cells/well.
The NADPH-oxidase assay is run on a Biomek 2000 workstation. The workstation adds 2.5 μl compound per well from source plates plus 12.5 μL per well 4 μM PMA (agonist). This volume is brought up to 100 μL total per well in the assay plates upon the addition of the prepared cells (85 μL). The final concentration of drug is 25 μM and PMA is 0.5 μM under these conditions.
The QC curve is a dose-responsive curve (from about 31.25 nM to about 4000 nM) for competitive binding against a known oxidase inhibitor such as DPI (diphenylene iodonium chloride). The following format was used for each compound tested:
The plates are incubated for 1 hour at 37° C. without CO2. The plates are then incubated at room temperature for 30 minutes and the absorbance is read at 550 nm.

[1] = tested on: mice with potassium peroxochromate arthritis; conditions: cited from earlier work
ROS = conditions: human patients with rheumatoid arthritis and osteoarthritis, pharmacological doses; cited from earlier work

Molecule: CC(C)CNCc1cccc(OCc2nc(-c3ccc(Cl)cc3)cs2)c1
- IC50 (NADPH-oxidase): 2500 nM

Molecule: 4-(4-chlorophenyl)-2-[[3-[(5-methyl-2-furanyl)methyl]phenoxy]methyl]-thiazole [Cpd 8]
- IC50 (NADPH-oxidase): 700 nM

Molecule: CCCNCc1cccc(OCc2nc(-c3ccc(Cl)cc3)cs2)c1 [Cpd 1, 3-[[4-(4-chlorophenyl)-2-thiazolyl]methoxy]-N-propyl-benzenemethanamine]
- melting point: 63.5 to 64.5 °C
- IC50 (NADPH-oxidase): 1650 nM

Molecule: CCCNCc1ccc(OCc2nc(-c3ccc(Cl)cc3)cs2)cc1 [Cpd 1a, 4-[[4-(4-chlorophenyl)-2-thiazolyl]methoxy]-N-propyl-benzenemethanamine]
- melting point: 63.5 to 64.5 °C

Molecule: CCCCNCc1cccc(OCc2nc(-c3ccc(Cl)cc3)cs2)c1 [Cpd 2, 3-[[4-(4-chlorophenyl)-2-thiazolyl]methoxy]-N-(3-methylpropyl)-benzenemethanamine]
- melting point: 86 to 88 °C

Molecule: Clc1ccc(-c2csc(COc3cccc(CNC4CCCC4)c3)n2)cc1 [Cpd 3, 3-[[4-(4-chlorophenyl)-2-thiazolyl]methoxy]-N-cyclopentyl-benzenemethanamine]
- melting point: 94 to 94.5 °C
- IC50 (NADPH-oxidase): 40 nM

Molecule: Clc1ccc(-c2csc(COc3cccc(CNC4CCCCC4)c3)n2)cc1 [Cpd 4, 3-[[4-(4-chlorophenyl)-2-thiazolyl]methoxy]-N-cyclohexyl-benzenemethanamine]
- melting point: 85 to 86 °C
- IC50 (NADPH-oxidase): 130 nM

Molecule: Clc1ccc(-c2csc(COc3cccc(CNC4CC4)c3)n2)cc1 [Cpd 5, 3-[[4-(4-chlorophenyl)-2-thiazolyl]methoxy]-N-cyclopropyl-benzenemethanamine]
- melting point: 80.5 to 81.5 °C
- IC50 (NADPH-oxidase): 3450 nM

Molecule: CN1CCCC1CNCc1cccc(OCc2nc(-c3ccc(Cl)cc3)cs2)c1 (centres unmarked) [Cpd 6, N-[[3-[[4-(4-chlorophenyl)-2-thiazolyl]methoxy]phenyl]methyl]-1-methyl-2-pyrrolidinemethanamine.(HCl)2]
- IC50 (NADPH-oxidase): 10000 nM

Molecule: Clc1ccc(-c2csc(COc3cccc(CNCCN4CCOCC4)c3)n2)cc1 [Cpd 7]
- IC50 (NADPH-oxidase): 1470 nM

Molecule: COc1ccc2[nH]cc(CCNCc3cccc(OCc4nc(-c5ccc(Cl)cc5)cs4)c3)c2c1 [Cpd 9, N-[[3-[[4-(4-chlorophenyl)-2-thiazolyl]methoxy]phenyl]methyl]-5-methoxy-1H-indole-3-ethanamine.HCl]
- IC50 (NADPH-oxidase): 300 nM

Molecule: Clc1ccc(-c2csc(COc3ccc(CNC4CCCC4)cc3)n2)cc1 [Cpd 10, 4-[[4-(4-chlorophenyl)-2-thiazolyl]methoxy]-N-cyclopentyl-benzenemethanamine]
- melting point: 125.5 to 126.5 °C
- IC50 (NADPH-oxidase): 700 nM

Molecule: NCc1cccc(OCc2nc(-c3ccc(Cl)cc3)cs2)c1 [Cpd 11, 3-[[4-(4-chlorophenyl)-2-thiazolyl]methoxy]-benzenemethanamine]
- melting point: 117 to 118.5 °C
- IC50 (NADPH-oxidase): 1900 nM

Molecule: c1ccc2c(c1)[I+]c1ccccc1-2 [DPI, diphenylene iodoniumchloride]
- inhibition at 10 µM (NADPH-oxidase; QC wells G–H, 2.5 μL of 10 μM DPI, at 250 nm (so in the source), agonist added): ~70%
- inhibition of the arthritis ([1]; 10 mmol/kg): Complete inhibition
- inhibited the arthritis ([1]; daily doses of 2.8 μmol/kg): 50%

Molecule: CN1C(C(=O)Nc2ccccn2)=C(O)c2ccccc2S1(=O)=O [Piroxicam]
- reduce levels of ROS (ROS): 25%
